Values quoted from earlier work as cited in patent publication US6346524B1, “Cancer treatment with temozolomide” (Schering Corporation, priority 1999, dated 2002).

Experiments:
advanced melanoma [1] = conditions: patients having advanced melanoma; Newlands et al. Br. J. Cancer 65 (2) 287-291 (1992)
advanced melanoma [2] = conditions: patients with advanced melanoma; Journal of Clinical Oncology, Vol 13, No. 4, 1995, pp 910-913

Cn1nnc2c(C(N)=O)ncn2c1=O [Temozolomide, 3,4-dihydro-3-methyl-4-oxoimidazo-[5,1-d] 1,2,3,4-tetrazin-8-carboximide]
clinical responses achieved, % of patients (advanced melanoma [1]): 17% | clinical response achieved, % of patients (advanced melanoma [2]): 21%
